Measurements: ChEMBL document CHEMBL1857833, “Screening and optimization of specific chemical series against human African Trypanosomiasis (HAT)”
In brackets after ≈: the same amount, converted by molar mass. Several values for one entry are separate records, joined by “and”; a condition that tells them apart may be missing. Equal entries are not always repeated.

Experiments:
[1] = DNDI: Cytotoxicity against L929 mouse fibroblasts, CYTO-SP, 24 hour; type: toxicity, cell-based; details: mouse, L929 mouse fibroblasts
[2] = mouse, microsomes, 1 µM
Description: DNDI: in vitro intrinsic clearance in mouse liver microsomes at a concentration of 1uM

in vitro = details: mouse, liver microsomes, t (1 / 2)
Description: DNDI: half life in mouse liver microsomes at a concentration of 1uM

[3] = DNDI: Cytotoxicity against L929 mouse fibroblasts, 72 hour.; type: toxicity, cell-based; details: mouse, L929 mouse fibroblasts
Trypanosoma brucei [4] = experiment: DNDI: Inhibition of Human African Trypanosomiasis, SBRI 427, in vitro; type: functional, organism-based
[5] = DNDI: Solubility in phosphate buffered saline at pH7.4 measured by nephelometry at room temperature (NEPH-RT); type: physicochemical; details: pH 7.4
[6] = DNDI: Lipophilicity measured in Chromatographic hydrophobicity index (CHI) assay, pH 7.4; type: physicochemical; details: buffer
Trypanosoma brucei [7] = experiment: DNDI: Inhibition of Human African Trypanosomiasis, Cross 22, in vitro; type: functional, organism-based
[8] = Trypanosoma brucei, SBRI 427, read-out: IC50

Structure (SMILES)	CLint in vitro [2] [µL/min/mg]	half-life at 1 µM (in vitro) [min]	IC50 (Trypanosoma brucei [4]; [8]) [µg/mL]	solubility kinetic [5] [µM]	chromatographic logD [6]	IC50 (Trypanosoma brucei [4])	IC50 (Trypanosoma brucei [7]) [µg/mL]	IC50 at 24 h [1] [µg/mL]	IC50 at 72 h [3] [µg/mL]
CN1CC(OC(=O)c2ccccc2)=CC1=O	–	–	> 5	> 200	2.34	–	–	–	> 10
FC(F)(F)c1ccc(CNC(c2nc(Cc3ccccc3)c(N3CCOCC3)o2)C2CC2)cc1 (configuration not stated)	–	–	4.53 (≈ 9.61 µM)	6 (≈ 2.83 µg/mL)	–	–	–	–	> 10
COc1ccc(/C(=N\O)Nc2ccccc2)cc1	121	7	2.72 (≈ 11.2 µM)	> 200	3.1	–	–	> 50	–
CCN(CC)CCCNc1cc(-c2ccccc2)nc2cc(-c3ccc(F)cc3)nn12	–	–	2.46 (≈ 5.89 µM)	25 (≈ 10.4 µg/mL)	4.84	–	–	–	3.05 (≈ 7.3 µM)
COc1ccc(C(=O)OC2=CC(=O)N(C)C2)cc1	–	–	> 5	> 200	2.72	–	–	–	> 10
O/N=C(\NC1CCCCC1)C1CCCCC1	–	–	> 5	> 200	4.41	–	–	> 50	–
Cc1cccc(-c2nc(CNCCC3CCCN3C)c(C)o2)c1 (configuration not stated)	–	–	0.55 (≈ 1.75 µM)	> 200	3.3	–	–	–	9.29 (≈ 29.6 µM)
CCC(C)C(NCc1ccccc1OC)c1nc(-c2ccccc2)c(N2CCOCC2)o1 (configuration not stated)	440	2	4.06 (≈ 9.32 µM)	6 (≈ 2.61 µg/mL)	–	–	–	–	> 10
COc1ccc(CNC(CC(C)C)c2nc(Cc3ccccc3)c(N3CCOCC3)o2)cc1 (configuration not stated)	463	2	2.23 (≈ 4.96 µM)	25 (≈ 11.2 µg/mL)	> 5.2	–	–	–	> 10
Cc1ccc(CNC(c2ccccc2)c2nc(Cc3ccccc3)c(N3CCOCC3)o2)cc1 (configuration not stated)	–	–	4.86 (≈ 10.7 µM)	6 (≈ 2.72 µg/mL)	–	–	–	–	> 10
COc1ccc(/C(=N/O)Nc2cccc(C#N)c2)cc1	–	–	> 5	50 (≈ 13.4 µg/mL)	2.41	–	–	–	> 10
COc1ccc(/C(=N/O)Nc2cccc(F)c2)cc1	143.33	5.93	0.67 (≈ 2.57 µM)	50 (≈ 13 µg/mL)	3.09	–	–	–	> 10
O/N=C(/c1ccccc1-c1ccccc1)N1CCCCC1	157	5	> 5	50 (≈ 14 µg/mL)	4.46	–	–	> 50	–
O=C1CCCN1CCCNc1cc(-c2ccccc2)nc2cc(-c3ccc(F)cc3)nn12	–	–	> 5	6 (≈ 2.58 µg/mL)	4.77	–	–	–	> 10
CCC(C)C(NCc1ccc(C)cc1)c1nc(Cc2ccccc2)c(N2CCOCC2)o1 (configuration not stated)	378	2	2.61 (≈ 6.02 µM)	6 (≈ 2.6 µg/mL)	–	–	–	–	> 10
COc1ccc(/C(=N/O)Nc2ccc(F)cc2)cc1	118	7	4.54 (≈ 17.4 µM)	100 (≈ 26 µg/mL)	3.02	–	–	–	> 10
CCC(C)C1C(=O)CC(=O)N1C(=O)OC(C)(C)C (configuration not stated)	–	–	> 5	> 200	4.54	–	–	–	> 10
Fc1cccc(-c2cc3nc(-c4ccccc4)cc(NCCCN4CCCC4)n3n2)c1	–	–	1.02 (≈ 2.45 µM)	3 (≈ 1.25 µg/mL)	4.79	–	–	–	2.49 (≈ 5.99 µM)
O/N=C(/Nc1ccc(F)cc1)c1ccccc1-c1ccccc1	59	14	3.46 (≈ 11.3 µM)	25 (≈ 7.66 µg/mL)	3.98	–	–	> 50	–

Now from value to compound, other results behind:

CLint in vitro [2] [µL/min/mg]	half-life at 1 µM (in vitro) [min]	IC50 (Trypanosoma brucei [4]; [8]) [µg/mL]	solubility kinetic [5] [µM]	chromatographic logD [6]	IC50 (Trypanosoma brucei [4])	IC50 (Trypanosoma brucei [7]) [µg/mL]	Structure (SMILES)	IC50 at 24 h [1] [µg/mL]	IC50 at 72 h [3] [µg/mL]
27	32	0.3 (≈ 0.76 µM)	–	–	–	–	CCCCCOc1ccc(-c2nc(CNC3[C@H]4C[C@@H]5C[C@@H](C[C@H]3C5)C4)co2)cc1 (some centres not stated)	> 50	< 3.13
13	65	0.39 (≈ 1.05 µM)	3 (≈ 1.11 µg/mL)	4.28	–	–	CCCCCC(C)NCc1coc(-c2ccc(OC3CCCCC3)cc2)n1 (configuration not stated)	–	1.48 (≈ 3.99 µM)
30	28	0.49 (≈ 1.33 µM)	–	–	–	–	CCCOc1ccc(-c2nc(CN[C@@H]3C[C@@H]4C[C@H]([C@H]3C)C4(C)C)co2)cc1	15.7 (≈ 42.7 µM)	< 3.13
12	73	0.31 (≈ 0.867 µM)	2 (≈ 0.715 µg/mL)	4.64	–	–	CCCCOc1ccc(-c2nc(CNCCC3CCCN3C)co2)cc1 (configuration not stated)	–	2.9 (≈ 8.11 µM)
–	–	–	1 (≈ 0.38 µg/mL)	–	1.43 µg/mL and 0.89 µg/mL and 2.17 µg/mL	–	COc1cccc(OC)c1CNCc1coc(-c2ccc(C(C)(C)C)cc2)n1	43.2 (≈ 114 µM)	2.07 (≈ 5.44 µM)
–	–	4.56 (≈ 11.4 µM)	3 (≈ 1.2 µg/mL)	> 5.2	–	–	Cc1ccc(CNC(c2nc(-c3ccccc3)c(N3CCCCC3)o2)C2CC2)cc1 (configuration not stated)	–	> 10
11	76	0.14 (≈ 0.377 µM)	< 1	5.2	–	–	CCCCCOc1ccc(-c2nc(CNCCC3CCCN3C)co2)cc1 (configuration not stated)	–	1.21 (≈ 3.26 µM)
–	–	1.06 (≈ 3.07 µM)	–	–	0.71 µg/mL and 0.8 µg/mL	0.9 (≈ 2.61 µM)	C[C@H]1C(NCc2coc(-c3ccc(Cl)cc3)n2)C[C@@H]2C[C@H]1C2(C)C (some centres not stated)	> 50	< 3.13
307	3	> 5	6 (≈ 2.59 µg/mL)	–	–	–	CC(C)CNC(CCc1ccccc1)c1nc(Cc2ccccc2)c(N2CCCCC2)o1 (configuration not stated)	–	> 10
351	2	0.46 (≈ 1.32 µM)	–	–	0.48 µg/mL (≈ 1.38 µM)	–	O/N=C(\NC1CCCCC1)c1cccnc1Oc1c(F)cccc1F	> 50	> 10
–	–	1.25 (≈ 3.76 µM)	6 (≈ 1.99 µg/mL)	–	–	–	CCCCCC(C)NCc1coc(-c2cc(OC)cc(OC)c2)n1 (configuration not stated)	–	4.75 (≈ 14.3 µM)
–	–	> 5	> 200	2.87	–	–	N=C(NC1CCCCC1)c1ccccc1-c1ccccc1	> 50	–
8	107	0.16 (≈ 0.416 µM)	2 (≈ 0.769 µg/mL)	6.02	–	–	CCCCCOc1ccc(-c2nc(CNC3CC(C)CC(C)(C)C3)co2)cc1 (configuration not stated)	> 50	< 3.13
–	–	0.8 (≈ 2.32 µM)	–	–	0.9 µg/mL and 1.53 µg/mL	1.04 (≈ 3.02 µM)	CC1(C)[C@H]2CC[C@@H](CNCc3coc(-c4ccc(Cl)cc4)n3)[C@@H]1C2	> 50	3.52 (≈ 10.2 µM)
95	9	0.07 (≈ 0.19 µM)	13 (≈ 4.78 µg/mL)	–	–	–	CC(C)(C)c1ccc(Oc2ncccc2/C(=N/O)NC2CCCCC2)cc1	–	> 10
–	–	0.43 (≈ 1.37 µM)	> 200	3.3	–	–	Cc1ccc(-c2nc(CNCCC3CCCN3C)c(C)o2)cc1 (configuration not stated)	–	7.78 (≈ 24.8 µM)
236	4	2.45 (≈ 5.33 µM)	3 (≈ 1.38 µg/mL)	–	–	–	Cc1ccc(CNC(c2nc(Cc3ccccc3)c(N3CCOCC3)o2)C2CCCCC2)cc1 (configuration not stated)	–	> 10
31	27	0.54 (≈ 1.63 µM)	–	–	–	–	CCCCCC(C)NCc1coc(-c2ccc(OCCC)cc2)n1 (configuration not stated)	27.5 (≈ 83.4 µM)	< 3.13
–	–	1.18 (≈ 3.54 µM)	–	–	0.86 µg/mL and 1.52 µg/mL	0.85 (≈ 2.55 µM)	CC1CC(NCc2coc(-c3ccc(Cl)cc3)n2)CC(C)(C)C1 (configuration not stated)	> 50	< 3.13
55	15	0.79 (≈ 2.62 µM)	1 (≈ 0.301 µg/mL)	4.97	–	–	CCCCc1ccc(-c2nc(CNCCN(C)C)co2)cc1	–	4.87 (≈ 16.2 µM)
227	4	4.82 (≈ 11.1 µM)	2 (≈ 0.867 µg/mL)	> 5.2	–	–	CCC(C)C(NCc1ccccc1OC)c1nc(-c2ccccc2)c(N2CCCCC2)o1 (configuration not stated)	–	> 10
12	70	0.19 (≈ 0.53 µM)	6 (≈ 2.15 µg/mL)	–	–	–	CCCCCC(C)NCc1coc(-c2ccc(OCC(C)(C)C)cc2)n1 (configuration not stated)	–	0.65 (≈ 1.81 µM)
9	97	0.55 (≈ 1.45 µM)	1 (≈ 0.379 µg/mL)	–	–	–	CCCCCC(C)NCc1coc(-c2ccc(OCc3ccccc3)cc2)n1 (configuration not stated)	–	1.41 (≈ 3.73 µM)
33	26	0.84 (≈ 2.57 µM)	< 1	4.89	–	–	CCCCc1ccc(-c2nc(CNCCN3CCCC3)co2)cc1	–	3.87 (≈ 11.8 µM)
8	101	0.25 (≈ 0.701 µM)	–	–	–	–	CCCCCOc1ccc(-c2nc(CNC3CCCCCC3)co2)cc1	29.5 (≈ 82.8 µM)	< 3.13
188	5	0.59 (≈ 1.45 µM)	2 (≈ 0.813 µg/mL)	4.16	–	–	CCCCCC(C)NCc1coc(-c2ccc(OCC(=O)c3ccccc3)cc2)n1 (configuration not stated)	–	1.74 (≈ 4.28 µM)
36	24	0.6 (≈ 1.91 µM)	3 (≈ 0.943 µg/mL)	–	–	–	CCCCCC(C)NCc1coc(-c2ccc(C(C)C)cc2)n1 (configuration not stated)	–	1.33 (≈ 4.23 µM)
